pIC50: −log10 of the molar value.
test system: phospho-PLCγ1 in Jurkat cells; test: ITK target modulation PLC-γ assay (phospho-PLCγ1, αCD3-stimulated Jurkat cells); type: cell-based, human; conditions: Homo sapiens, 1 hour compound incubation, αCD3 Dynabeads stimulation 8 minutes, MSD phospho-PLCγ1, read-out: PLC-γ Inhibition IC50
Method: Jurkat cells, an immortalized human T-lymphocyte cell line, were maintained in RPMI media, 10% FBS, 1% pen/strep/glutamine (growth media). Cells were plated in growth media plus 50 μM β-mercaptoethanol at 400,000 cells per well of a 96 well plate.
Compounds were serially diluted into DMSO, and then into media to concentrations 10× that of the final assay concentration. Compounds were then added to the cells with the final assay DMSO concentration being 0.1%. Cells were incubated for 1 hour at 37° C.
Following compound incubation, αCD3 Dynabeads were added at 1 bead/cell to each assay well and incubated at 37° C. for 7 minutes. Unstimulated control wells received media only. The plate was then placed on a 96-well magnetic plate for an additional 60 seconds (total assay stimulation time equals 8 minutes). The plate was then dumped and gently patted dry on a paper towel. 50 μl of complete Meso Scale Discovery (MSD) Lysis buffer was then added to each well. Samples were assayed for phospho-PLCγ1 using Meso Scale Discovery technology.
The assay stimulation time has been optimized for detection of Itk kinase-mediated phosphorylation of PLCγ1. The timing and detection reagents for this assay could be adjusted to capture phosphorylation events upstream (e.g., phospho-ZAP70) or downstream of the Itk/PLCγ1 node, provided the appropriate phospho-specific antibodies are available for building of an MSD assay.

| SMILES | pIC50 |
| --- | --- |
| C=CC(=O)NC1CN(c2cnc3[nH]cc(-c4ccnc(C#N)c4)c3c2)C1 [Example 5, N-(1-(3-(2-Cyanopyridin-4-yl)-1H-pyrrolo[2,3-b]pyridin-5-yl)azetidin-3-yl)acrylamide] | < 5.30 |
| C=CC(=O)Nc1cccc(-c2cnc3[nH]cc(-c4cccnc4)c3c2)c1 [Example 12, N-(3-(3-(pyridin-3-yl)-1H-pyrrolo[2,3-b]pyridin-5-yl)phenyl)acryl-amide] | 5.30 to 6.00 |
| C=CC(=O)Nc1cc(C#N)cc(-c2cnc3[nH]cc(-c4ccncc4)c3c2)c1 [Example 19, N-(3-cyano-5-(3-(pyridin-4-yl)-1H-pyrrolo[2,3-b]pyridin-5-yl)phenyl)acryl-amide] | < 5.30 |
| C=CC(=O)Nc1cc(-c2cnc3[nH]cc(-c4ccncc4)c3c2)cc(C(F)(F)F)c1 [Example 20, N-(3-(3-(pyridin-4-yl)-1H-pyrrolo[2,3-b]pyridin-5-yl)-5-(trifluoromethyl)phenyl)acryl-amide] | > 6.00 |
| C=CC(=O)Nc1cc(OC)cc(-c2cnc3[nH]cc(-c4ccncc4)c3c2)c1 [Example 22, N-(3-methoxy-5-(3-(pyridin-4-yl)-1H-pyrrolo[2,3-b]pyridin-5-yl)phenyl)acryl-amide] | > 6.00 |
| C=CC(=O)Nc1cccc(-c2cnc3[nH]cc(-c4ccnc(F)c4)c3c2)c1 [Example 25, N-(3-(3-(2-fluoropyridin-4-yl)-1H-pyrrolo[2,3-b]pyridin-5-yl)phenyl)acryl-amide] | > 6.00 |
| C=CC(=O)Nc1cccc(-c2cnc3[nH]cc(-c4ccnc(C)c4)c3c2)c1 [Example 26, N-(3-(3-(2-methylpyridin-4-yl)-1H-pyrrolo[2,3-b]pyridin-5-yl)phenyl)acryl-amide] | > 6.00 |
| C=CC(=O)Nc1cccc(-c2cnc3[nH]cc(-c4cc(C)nc(OC)c4)c3c2)c1 [Example 29, N-(3-(3-(2-methoxy-6-methylpyridin-4-yl)-1H-pyrrolo[2,3-b]pyridin-5-yl)phenyl)acryl-amide] | 5.30 to 6.00 |

Now from value to molecule:

| pIC50 | SMILES |
| --- | --- |
| 5.30 to 6.00 | C=CC(=O)Nc1cccc(-c2cnc3[nH]cc(-c4ccc(OC)nc4)c3c2)c1 [Example 30, N-(3-(3-(6-methoxypyridin-3-yl)-1H-pyrrolo[2,3-b]pyridin-5-yl)phenyl)acryl-amide] |
| < 5.30 | C=CC(=O)Nc1cccc(-c2cnc3[nH]cc(-c4cc(OC)nc(C(F)(F)F)c4)c3c2)c1 [Example 31, N-(3-(3-(2-methoxy-6-(trifluoromethyl)pyridin-4-yl)-1H-pyrrolo[2,3-b]pyridin-5-yl)phenyl)acryl-amide] |
| > 6.00 | C=CC(=O)Nc1cccc(-c2cnc3[nH]cc(-c4ccnc(NC)c4)c3c2)c1 [Example 32, N-(3-(3-(2-(methylamino)pyridin-4-yl)-1H-pyrrolo[2,3-b]pyridin-5-yl)phenyl)acryl-amide] |
| 5.30 to 6.00 | Cc1cc(-c2c[nH]c3ncc(-c4cccc(/C=C(\C#N)C(N)=O)c4)cc23)ccn1 [Example 33, (E)-2-cyano-3-(3-(3-(2-methylpyridin-4-yl)-1H-pyrrolo[2,3-b]pyridin-5-yl)phenyl)acryl-amide] |
| 5.30 to 6.00 | C=CC(=O)Nc1cccc(-c2cnc3[nH]cc(-c4ccccc4C)c3c2)c1 [Example 42, N-(3-(3-(o-tolyl)-1H-pyrrolo[2,3-b]pyridin-5-yl)phenyl)acryl-amide] |
| 5.30 to 6.00 | C=CC(=O)Nc1cccc(-c2cnc3[nH]cc(-c4cncc(Cl)c4)c3c2)c1 [Example 43, N-(3-(3-(5-chloropyridin-3-yl)-1H-pyrrolo[2,3-b]pyridin-5-yl)phenyl)acryl-amide] |
| 5.30 to 6.00 | C=CC(=O)Nc1cccc(-c2cnc3[nH]cc(-c4cc(C)ncn4)c3c2)c1 [Example 44, N-(3-(3-(6-methylpyrimidin-4-yl)-1H-pyrrolo[2,3-b]pyridin-5-yl)phenyl)acryl-amide] |
| > 6.00 | C=CC(=O)Nc1cccc(-c2cnc3[nH]cc(-c4ccc(F)nc4)c3c2)c1 [Example 46, N-(3-(3-(6-fluoropyridin-3-yl)-1H-pyrrolo[2,3-b]pyridin-5-yl)phenyl)acryl-amide] |

From patent US9695200B2, “Heterocyclic ITK inhibitors for treating inflammation and cancer” (Confluence Life Sciences, Inc., priority 2015, dated 2017)
